# From PubChem BioAssay AID463203 (Broad Institute, 2010)
# Activity calls are given as the source filed them.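 The calls were made as follows: active = more than half of replicate measurements showing over 20% loss of kinase signal relative to plate controls; inconclusive = some but at most half of replicates over 20% loss; inactive = no replicate over 20% signal loss.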
# Target: Glycogen synthase kinase-3 alpha (Homo sapiens) (UniProt P49840)
# Assay: concentration-response blocking of human GSK3A – biochemical, luminescence, cell-free homogeneous, retest, dose response (AID 463203)
# Conditions: GSK-3 alpha enzyme, ADP-Glo luminescence, 60 min
# Sequence of Glycogen synthase kinase-3 alpha (Homo sapiens) (P49840 whole entry, looked up): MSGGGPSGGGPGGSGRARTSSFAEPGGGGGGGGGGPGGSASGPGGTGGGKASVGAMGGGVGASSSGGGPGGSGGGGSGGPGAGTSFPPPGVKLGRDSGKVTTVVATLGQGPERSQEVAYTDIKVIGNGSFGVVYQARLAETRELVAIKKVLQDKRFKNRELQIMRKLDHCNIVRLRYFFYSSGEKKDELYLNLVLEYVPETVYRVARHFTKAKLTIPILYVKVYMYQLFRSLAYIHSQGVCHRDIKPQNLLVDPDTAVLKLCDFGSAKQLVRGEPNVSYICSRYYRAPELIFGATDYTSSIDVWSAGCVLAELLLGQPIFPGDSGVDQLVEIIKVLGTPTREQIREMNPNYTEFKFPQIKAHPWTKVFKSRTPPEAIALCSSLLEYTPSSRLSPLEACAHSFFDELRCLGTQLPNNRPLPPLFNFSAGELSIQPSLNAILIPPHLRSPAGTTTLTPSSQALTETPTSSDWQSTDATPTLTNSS
row,SMILES,AC50
1,COc1cc(NC(=O)c2cc([N+](=O)[O-])ccc2NC(=O)CNC2CCCCC2C)cc(OC)c1 (stereo not drawn),> 30 µM (inactive)
2,CC(C)=CC(=O)NCc1c(Cl)cccc1-n1cccc1,> 30 µM (inactive)
3,Cc1ccc(Sc2nc(-c3ccccc3)nnc2C(F)(F)F)cc1,> 30 µM (inactive)
4,CCOc1cc(/C=N/O)ccc1OCc1ccc([N+](=O)[O-])cc1,> 30 µM (inactive)
5,COCCCNc1nc2nonc2nc1N1C[C@H]2CC[C@H]1C2,> 30 µM (inactive)
6,C/C(=N\NC(=O)c1nnn(-c2nonc2N)c1-c1cccs1)c1ccncc1,1.02 µM
7,FC(F)(F)COc1ccc(-c2nnc(SCc3c(Cl)cccc3Cl)o2)cn1,> 30 µM (inactive)
8,Cc1cc(C(=O)N/N=C/c2cc(N=Nc3ccccc3)ccc2O)n[nH]1,> 30 µM (inactive)
9,CC(C)(C)C(=O)NC(=S)Nc1sc2c(c1C(N)=O)CCC2,> 30 µM (inactive)
10,O=C(CSc1nnc(SCc2ccccc2Cl)s1)N/N=C/c1ccc(C(=O)O)cc1,5.94 µM
11,Cc1c(CN(C)C)c2c(n1Cc1ccccc1)C(=O)c1ccccc1-2,> 30 µM (inactive)
12,CCCC(=O)Nc1nn(CC)c2nc3ccc(C)cc3cc12,> 30 µM (inactive)
13,CCS(=O)(=O)N1CCN(c2ccnc3cc(Cl)ccc23)CC1,> 30 µM (inactive)
14,CN(C)C(=O)Oc1ccc([N+](=O)[O-])cc1,> 30 µM (inactive)
15,COc1ccc(C(=O)NCC(=O)N/N=C/C=C/c2ccccc2)cc1OC,> 30 µM (inactive)
16,COc1cccc(/C=N/NC(=O)c2nnn(-c3nonc3N)c2-c2cccs2)c1,0.899 µM
17,CCOc1ccc(-c2nc(N)ncc2-c2ccccc2)c(O)c1,20.7 µM
18,COc1ccccc1N1CCN(CCC(=O)Nc2cccc(Cl)c2)CC1,19.3 µM
19,Cc1ccc2nc(-c3cccc(N)c3)[nH]c2c1,> 30 µM (inactive)
20,CCC(C)[C@H](NC(=O)NCc1ccc(Cl)cc1)C(=O)OC (stereo partly drawn),> 30 µM (inactive)
21,CCN1C(=O)/C(=C\c2cccs2)C(C(=O)OC)=C1C,> 30 µM (inactive)
22,Cc1nc(Nc2ccc(C(=O)O)cc2)nc(Nc2ccc(C(=O)O)cc2)c1[N+](=O)[O-],11.7 µM
23,N#Cc1cc(-c2cccc(Cl)c2)c[nH]c1=O,> 30 µM (inactive)
24,Cc1cc(C)nc(NC(=O)c2ccc(Br)s2)n1,> 30 µM (inactive)
25,COc1ccc2nc(NC(=O)CSc3nc4ccccc4o3)sc2c1,28.8 µM
26,COc1cc2c(cc1OC)-c1nnc(C)n1C1(CCCC1)C2,30.2 µM

row,SMILES,AC50
1,O=C(NCc1ccc(C(=O)N2CCC3(CC2)OCCO3)cc1)c1ccc2c(c1)OCO2,> 30 µM (inactive)
2,Cc1onc(-c2ccccc2Cl)c1C(=O)Nc1cccc(-c2cn3cccnc3n2)c1,> 30 µM (inactive)
3,COc1cc(/C=N/NC(=O)c2cnccn2)ccc1O,> 30 µM (inactive)
4,Clc1ccc(C2=Nn3c(nnc3-c3cccs3)SC2)cc1,> 30 µM (inactive)
5,O=[N+]([O-])c1ccccc1/C=N/n1c(-c2cccnc2)n[nH]c1=S,28 µM
6,CC(C)=CCc1c(O)cc(O)c2c(=O)c(O[C@@H]3O[C@@H](C)[C@H](O)[C@@H](O)[C@H]3O)c(-c3ccc(O)cc3)oc12,19.6 µM
7,CCOC(=O)c1cc(C)sc1NC(=O)C1CCC1,> 30 µM (inactive)
8,COC(=O)c1ccc(CSc2nnc(-c3ccncc3)n2Cc2ccccc2)o1,> 30 µM (inactive)
9,C=CCc1cccc(/C=N/n2c(C)nnc2C)c1O,> 30 µM (inactive)
10,CS(=O)(=O)Nc1ccc(-c2ccc(/C=C3\SC(N)=NC3=O)o2)cc1,1.02 µM
11,Fc1ccccc1/C=N/Nc1cc(N2CCCCC2)ncn1,> 30 µM (inactive)
12,O=C(CSc1ccccn1)Nc1ccccc1F,> 30 µM (inactive)
13,Cc1ccc(NC(=O)c2cc(-n3cnnc3)ccc2Cl)c(C)c1,> 30 µM (inactive)
14,CC1(C)Oc2ccc3ccc(=O)oc3c2-c2cnoc21,> 30 µM (inactive)
15,COc1cc(C(=O)NCC(=O)N/N=C\C(C)=C/c2ccccc2)cc(OC)c1OC,> 30 µM (inactive)
16,COc1c(NC(C)=O)c2ccccc2c2ccccc12,> 30 µM (inactive)
17,Cc1ccc(Cn2nc(-c3ccccc3)nc2-c2ccccc2)cc1,> 30 µM (inactive)
18,COc1ccc(-c2cc(C(=O)N3CCN(c4ccccc4)CC3)no2)cc1OC,> 30 µM (inactive)
19,CNC(=O)c1ccc(NC(=O)C2CCN(c3ncnc4sc(C)c(C)c34)CC2)cc1,> 30 µM (inactive)
20,O=C(Nc1sc2c(c1C(=O)N1CCOCC1)CCCCC2)c1cccnc1,> 30 µM (inactive)
21,COc1ccc(N=Cc2c(O)[nH]c3ccccc23)cc1OC,20.3 µM
22,c1ccc(-c2csc3ncnc(NCc4ccccn4)c23)cc1,24.5 µM
23,CC1CC(=O)c2cnc(NCC3CCCO3)nc2C1 (stereo not drawn),> 30 µM (inactive)
24,N#CCCn1cc(/C=N/O)c(-c2ccc(Cl)cc2)n1,21 µM
25,COCCNc1cc(N)c([N+](=O)[O-])cc1[N+](=O)[O-],> 30 µM (inactive)
26,Brc1ccccc1C1=Nn2c(nnc2-c2ccccc2)SC1,> 30 µM (inactive)

row,SMILES,AC50
1,CCNc1cc(N2CCCC2)ccc1[N+](=O)[O-],> 30 µM (inactive)
2,COc1ccc(CC(=O)N2CCOCC2)cc1,> 30 µM (inactive)
3,c1ccc(CN2CCN(CCCNc3ccc4nnc(-c5ccccc5)n4n3)CC2)cc1,> 30 µM (inactive)
4,Cc1ccc(S(=O)(=O)N(CC(O)CN2CCCC2)c2ccccc2)cc1 (stereo not drawn),> 30 µM (inactive)
5,COc1ccc(-n2c(SCC(N)=O)nnc2-c2ccco2)cc1,> 30 µM (inactive)
6,Cc1ccc(N2C(S)=C(C#N)C(=O)NC2c2ccco2)cc1 (stereo not drawn),> 30 µM (inactive)
7,Nc1nonc1-n1nnc(C(=O)N/N=C/c2ccncc2)c1CSc1ccc(Cl)cc1,> 30 µM (inactive)
8,Cc1nnc(SCC(=O)N2c3ccccc3CC2C)s1 (stereo not drawn),> 30 µM (inactive)
9,CC1CCN(Cc2c(C(=O)N/N=C/c3ccc(C(C)(C)C)cc3)nnn2-c2nonc2N)CC1,> 30 µM (inactive)
10,CCCCn1c(O)c(C(C)=NCCCn2ccnc2)c(=O)[nH]c1=O,11.1 µM
11,CC(=O)c1cc(-c2ccc(F)cc2)n(CCC(=O)Nc2cccc(C)n2)c1C,> 30 µM (inactive)
12,CSc1nc2sc3c(c2c(=O)[nH]1)CCC(C)C3 (stereo not drawn),> 30 µM (inactive)
13,O=C(Nc1sc2c(c1C(=O)O)CCC2)c1cccs1,> 30 µM (inactive)
14,CCOC(=O)c1oc2ccc3c(c2c1C)C(=O)CC1(CCN(C(=O)OCC)CC1)O3,> 30 µM (inactive)
15,CCC(C)[C@H](NC(=O)NCc1ccccc1Cl)C(=O)OC (stereo partly drawn),> 30 µM (inactive)
16,Cc1nn(CCOc2ccccc2)c(=O)n1-c1ccccc1F,> 30 µM (inactive)
17,CCOC(=O)c1cccc(NC(=O)C2CCCN2S(=O)(=O)c2cccc3cccnc23)c1 (stereo not drawn),29.5 µM
18,Cc1ccnc(NC(=O)CCC(=O)N(CC(=O)NCc2ccccc2)Cc2ccc(F)cc2)c1,25 µM
19,C=CCN=C1NN=C(c2ccc3c(c2)OCCO3)CS1,> 30 µM (inactive)
20,COC(=O)[C@@H](NC(=O)NCc1ccccc1Cl)C(C)C,> 30 µM (inactive)
21,C/C(CC(=O)Nc1ccc(Cl)cc1Cl)=N\NC(=O)C(=O)N1CCCC1,> 30 µM (inactive)
22,O=C(Nc1cccc(Cl)c1N1CCCC1)c1ccc(Br)o1,> 30 µM (inactive)
23,NC(=O)c1cc([N+](=O)[O-])ccc1NCc1ccc(O)cc1,4.32 µM
24,CN(C)CCCNS(=O)(=O)c1ccc(-n2nnc3ccccc32)c([N+](=O)[O-])c1,> 30 µM (inactive)
25,O=C1c2cnc3nc(SCc4cccc(Cl)c4)nn3c2CC2c3ccccc3CCN12 (stereo not drawn),> 30 µM (inactive)
26,CC[n+]1c(/C=C/N(C)c2ccccc2)n(-c2ccccc2)c2ccc(-c3nc4ccccc4s3)cc21,> 30 µM (inactive)

row,SMILES,AC50
1,COc1ccc(N=Cc2c(O)[nH]c3ccccc23)cc1,19.8 µM
2,CCN(C(=O)CN1CCCC(C)C1)c1c(N)n(Cc2ccccc2)c(=O)[nH]c1=O (stereo not drawn),> 30 µM (inactive)
3,N#CC1=C(N)Oc2n[nH]c(-c3cccnc3)c2C1c1cc(F)ccc1F (stereo not drawn),> 30 µM (inactive)
4,CC(=O)Oc1ccc2ccc(=O)oc2c1,> 30 µM (inactive)
5,O=C(COC(=O)c1cccc(S(=O)(=O)N2CCOCC2)c1)Nc1ncc(Cl)cc1Cl,> 30 µM (inactive)
6,N#C/C(=N\Nc1ccccc1)C(N)=S,> 30 µM (inactive)
7,CCOC(=O)Cc1csc(NC(=O)C2CCCN(S(=O)(=O)c3cnc[nH]3)C2)n1 (stereo not drawn),> 30 µM (inactive)
8,COc1cc2sc(C)nc2c2ccccc12,> 30 µM (inactive)
9,N#Cc1c(Nc2ccccc2)c(C=O)c[nH]c1=O,> 30 µM (inactive)
10,Oc1cc(O)cc(-c2cc3ccc(O)cc3o2)c1,> 30 µM (inactive)
11,CC1CCCC(C)N1C(=O)COC(=O)c1c[nH]c2ccccc12 (stereo not drawn),> 30 µM (inactive)
12,COc1cc(/C=N/n2nnnc2N)ccc1OCC#N,> 30 µM (inactive)
13,CCOC(=O)C1=C(c2ccccc2)Nc2ncnn2C1c1cccc(OC)c1OC (stereo not drawn),9 µM
14,Cc1ccc(NC(=O)C2CCN(c3ncnc4sc(C)c(C)c34)CC2)cc1S(=O)(=O)N(C)C,> 30 µM (inactive)
15,Cc1nnc(SCC(=O)N(C(C)C)C(C)C)nc1C,> 30 µM (inactive)
16,CCOC(=O)C1=C(CC)OC(N)=C(C#N)C1c1ccc(NC(C)=O)cc1 (stereo not drawn),> 30 µM (inactive)
17,O=C(NCc1ccccc1)c1ccc2c(=O)[nH]c3c(C(=O)NCC4CCCO4)sc(=S)n3c2c1 (stereo not drawn),14 µM
18,O=C(NCC1CCN(Cc2ccccc2Cl)CC1)Nc1cccc(Cl)c1,> 30 µM (inactive)
19,O=C1/C(=C/c2ccco2)Oc2c1ccc(O)c2CN1CCCCC1,10 µM
20,COc1ccc(N=c2oc3c(OC)cccc3cc2C(=O)NCc2ccco2)c(OC)c1,> 30 µM (inactive)
21,O=Cc1cc(N=Nc2ccc(S(=O)(=O)O)cc2)ccc1O,> 30 µM (inactive)
22,Cc1cccc(-c2nnc3n2N=C(c2ccc(Br)cc2)CS3)c1,> 30 µM (inactive)
23,O=C(NCCCN1CCOCC1)c1ccc(Cl)c([N+](=O)[O-])c1,> 30 µM (inactive)
24,COc1ccc(-n2c(Cc3cccn3C)nnc2SCC(=O)Nc2ccc(F)cc2)cc1,> 30 µM (inactive)
25,Cc1ccccc1CNC(=O)c1cc(COc2ccc(F)cc2F)on1,> 30 µM (inactive)
